Here are results for ten compounds from patent publication EP0974573A1, “PHENYLPROPENONE COMPOUNDS AND MEDICINES CONTAINING THE SAME” (Kabushiki Kaisha Yakult Honsha, priority 1997, dated 1998).

Structures are written as SMILES.

One assay deals with SD rats. Kind of assay: Plasma cholesterol elevation inhibitory effects on rats loaded with high cholesterol diet, feed-mixed administration (Test 3). The format is in vivo, rat. The conditions noted are these: 0.005% of compound added to hyperlipemia inducing diet, ad libitum 3 days. From the text: Using 5-week old male SD rats (120-150 g, 10 rats per group, individual feeding), plasma cholesterol elevation inhibitory effects of various compounds in the Examples on rats were studied. To a control group, a feed which had been prepared by adding 1.5% of cholesterol, 0.5% of cholic acid, 10% of coconut oil and 10% of sugar to "F-2 Diet" (product of FUNABASHI FARM CO., LTD.) was given ad libitum as a hyperlipemia inducing diet.
To each test-compound-administered group, on the other hand, a feed which had been prepared by adding 0.005% of the corresponding compound in the Examples to the hyperlipemia inducing diet of the above-described composition was given ad libitum. Further, a normal diet group to which a feed similar to the hyperlipemia inducing diet except for the exclusion of cholesterol was also tested similarly. As a testing method, after these feeds were given ad libitum for 3 days, bloods were drawn on the 4th day from the abdominal aortas of the individual rats under anesthesia with Nembutal. Subsequent to collection of plasma from each blood sample, the plasma cholesterol was quantitated by a "DETERMINER TC555 KIT" (product of Kyowa Medex Co., Ltd.) while the HDL cholesterol was quantitated by "DETERMINER HDL KIT" (product of Kyowa Medex Co., Ltd.). The liver cholesterol was measured by extracting it in accordance with the Folch's method and then measuring it with a "DETERMINER TC555 KIT". Statistical processing of the data so obtained was conducted by the Danett's test.

The next assay has as its system rat-derived ACAT. Nature of the assay: Inhibitory effects on rat-derived ACAT (Test 1). The format is biochemical. The settings on record: crude enzyme from microsome protein fractions of rat liver, (14C)-oleoyl-CoA substrate, 37°C. The protocol:
To test effects on ACAT, a reaction was conducted in vitro to form (^14C)-cholesteryl oleate from endogeneous cholesterol in the presence of (^14C)-oleoyl-CoA as a substrate by using a crude enzyme prepared from microzome protein fractions of a rat liver.
The reaction mixture had the following composition: 20 µℓ of microsome protein (1.83 mg/mℓ), 20 µℓ of (^14C)-oleoyl-CoA (5 µCi/mℓ, BSA: 96 nmol/mℓ), 106 µℓ of 100 mM phosphate buffer (containing 5 mM of dithiothreitol, pH 7.4) and a sample dissolved in 4 µℓ of methanol or dimethyl sulfoxide; 150 µℓ in total.
The reaction was conducted at 37°C. After an elapse of a predetermined reaction time (18 minutes in general), a 2:1 mixture of chloroform and methanol (5.65 mℓ) was added to terminate the reaction. A 0.04 N aquous solution of hydrochloric acid (0.98 mℓ) and as a carrier, cholesteryl oleate were added, followed by extraction for 20 minutes on a shaking apparatus. The mixture was then allowed to stand overnight in a cold dark place. On the following day, the separated lower chloroform layer was extracted in its entirety and was dried under a nitrogen gas stream. The remaining upper layer was added with the lower layer (5.65 mℓ) of the Folch's partition solution, and was extracted again. After the mixture was allowed to stand overnight in a dark place, the lower layer was drawn in its entirety. This lower layer was combined with the lower chloroform layer fraction, which had already been dried to solid, and the mixture was then dried to solid.
The solid was then dissolved in chlorofrom (200 µℓ), and the solution was coated in its entirety on a G60 plate (aluminum sheet) for silica gel thin layer chromatography. After the solid was developedover 10 cm with a 10:190 mixture of diethyl ether and petroleum ether, autoradiography was conducted and the formation of (^14C)-colesteryl oleate was confirmed. This section was then cut off. The radioactivity of each sample was measured by subjecting it to liquid scintillation counting for 5 minutes in toluene or was measured for 30 minutes by a "Betascope" (manufactured by BETA-GEN INC. The results so obtained are shown in Table 1. Table 1

The subject of assay [1] is J774.1 strain, an established cell line of mouse macrophage. Kind of assay: Inhibitory effects on the accumulation of cholesterol esters in macrophage (Test 2). The format is cell-based. The conditions noted are these: J774.1 mouse macrophage, 12 hours incubation with cholesterol liposomes. The method, then: Inhibitory effects on the accumulation of cholesterol esters in macrophage were tested using J774.1 strain, an established cell line of mouse macrophage.
Metabolism of LDL in endothelial cells or smooth muscle cells causes downregulation of the LDL receptor by excess free cholesterol in the cells, but in a macrophage, uptake of modified lDL takes place via a scavenger receptor. As no regulation is applied to this pathway, cholesterol esters progressively accumulate without any limitation.
It was therefore studied whether or not corydaline would inhibit intracellular accumulation of cholesterol esters by having liposomes, which were formed of […] cholesterol and phosphatidylcholine, uptaken in macrophage cells and then causing them to act on acyl-CoA:cholesterol acyltransferase which existed on rough-surfaced endoplasmic reticula.
The macrophage cells were incubated for 2 days under 5% CO2 on an RPMI 1640 medium (product of NISSUI PHARMACEUTICAL CO., LTD.) which had been added with 10% fetal bovine serum, penicilin (50 U/mℓ) and streptomycin (50 µg/mℓ). Trypsinization was then conducted, and cells attached to the bottom of each well were peeled off and formulated into a cell suspension. The cells were washed with a fresh supply of the above-described culture medium, and the cell solution was then seeded at 2 x 10^6 cells/mℓ on a 24-well multiple well plate ("25820-24", product of CORNING INC.). After incubation at 37°C under 5% CO2 for 37 hours, the culture medium was replaced with a fresh supply of the above-described culture medium and, after a 0.3 M glucose solution (40 µℓ) with cholesterol [80 µg; containing 0.4 µCi of (^3H)-cholesterol] and phosphatidylcholine (160 µg) contained therein and a methanol solution (10 µℓ)with a test sample dissolved therein were added, incubation was conducted for 12 hours. These procedures were carried out aseptically.
After completion of the incubation, cells attached to each bottom were washed 5 times with a serum-free RPMI 1640 medium by a graduated pipet, and isopropanol (1 mℓ) was added to extract intracellular cholesterol and formed cholesterol esters. The extract was coated in its entirety on a silica gel thin layer chromatography ("Art 5553", product of MERCK & Co., INC.) and subsequent to development with a 80:20:2 mixture of hexane, ethyl ether and formic acid, autoradiography was performed.
A section, which contained ^3H-labelled cholesterol esters and cholesterol, was cut off. Its radioactivity was measured by a liquid scintillation counter and compared with a control, whereby a cholesterol ester accumulation inhibition rate was determined.

In a further assay the test system is ACAT. Kind of assay: Screening toward substances having ACAT activity inhibitory effects. The format is biochemical. The conditions noted are these: screening finding, no value given.

In the case of `CCCCCCCCCCCOc1c(OC)cc(/C=C/C(=O)NN2CCN(c3ccc(C)c(C)c3)CC2)cc1OC` [Compound 9, N-[4-(3,4-dimethylphenyl)-1,4-diazacyclohexyl]-(2E)-3-(3,5-dimethoxy-4-undecyloxyphenyl)-2-propenamide], the “Inhibitory rate (%) of plasma total cholesterol elevation in rat” value (“Inhibitory rate (%)” for short) in the assay on SD rats was 28%. Further, the IC50 (in general, the concentration that inhibits the measured activity by half) in the assay on rat-derived ACAT is 45 nM.

On to `CCCCCCCCCCCCOc1c(OC)cc(/C=C/C(=O)NN2CCN(c3ccc(C)c(C)c3)CC2)cc1OC` [Compound 10, N-[4-(3,4-dimethylphenyl)-1,4-diazacyclohexyl]-(2E)-3-(3,5-dimethoxy-4-dodecyloxyphenyl)-2-propenamide], for which the “Inhibitory rate (%)” value with SD rats is 33%. The same compound gave an IC50 in the assay on rat-derived ACAT of 71 nM.

In turn, `COc1cc(/C=C/C(=O)N2CCN(c3ccc(C)cc3C)CC2)cc(OC)c1OCCOc1ccccc1` [Compound 24, N-[4-(2,4-dimethylphenyl)-1,4-diazacyclohexyl]-(2E)-3-[3,5-dimethoxy-4-(2-phenoxy)ethyloxy]-2-propenamide] had an IC50 in assay [1] of 720 nM. Besides, the “Inhibitory rate (%)” value in the assay with SD rats was 20%.

`CCCCCCCCCCOc1c(OC)cc(/C=C/C(=O)NCCOc2ccccc2)cc1OC` [Compound 52, N-(2-phenoxyethyl)-(2E)-3-(3,5-dimethoxy-4-decyloxyphenyl)-2-propenamide]: the “Inhibitory rate (%)” value in the assay with SD rats is 23%.

As to `CCCCCCCCCCOc1c(OC)cc(/C=C/C(=O)Nc2ccc(Oc3ccccc3)cc2)cc1OC` [Compound 55, N-(4-phenoxyphenyl)-(2E)-3-(3,5-dimethoxy-4-decyloxyphenyl)-2-propenamide], the “Inhibitory rate (%)” value in the assay with SD rats came out at 34%.

Consider `COc1cc(/C=C/C(=O)Nc2ccc(F)cc2)cc(OC)c1OCc1ccccc1` [Compound 77, N-(4-fluorophenyl)-(2E)-3-(3,5-dimethoxy-4-benzyloxyphenyl)-2-propenamide], for which the IC50 was determined as 470 nM in assay [1] (Mus musculus, J774.1, 12 h) and 76 nM with rat-derived ACAT.

For `COc1cc(/C=C/C(=O)Nc2ccc(Cl)cc2)cc(OC)c1OCc1ccccc1` [Compound 78, N-(4-chlorophenyl)-(2E)-3-(3,5-dimethoxy-4-benzyloxyphenyl)-2-propenamide], the IC50 was determined as 170 nM in assay [1] (Mus musculus, J774.1, 12 h) and 35 nM in the assay on rat-derived ACAT.

For the compound `COc1cc(/C=C/C(=O)Nc2ccc(C(F)(F)F)cc2)cc(OC)c1OCc1ccccc1` [Compound 82, N-(4-trifluoromethylphenyl)-(2E)-3-(3,5-dimethoxy-4-benzyloxyphenyl)-2-propenamide], the IC50 in assay [1] (Mus musculus, J774.1, 12 h) worked out at 30 nM; with rat-derived ACAT, 42 nM.

In the case of `COc1cc(/C=C/C(=O)Nc2cc(C(F)(F)F)cc(C(F)(F)F)c2)cc(OC)c1OCc1ccccc1` [Compound 83, N-(3,5-bistrifluoromethylphenyl)-(2E)-3-(3,5-dimethoxy-4-benzyloxyphenyl)-2-propenamide], the IC50 worked out at 430 nM in assay [1] (Mus musculus, J774.1, 12 h) and 60 nM in the assay on rat-derived ACAT.

For the compound `COc1cc(/C=C/C(=O)CCCCc2ccccc2)ccc1O` [yakutinone B], the “ACAT activity inhibitory effects” value in the assay with ACAT was “exhibits ACAT activity inhibitory effects”.
